US8093406B2, “Cyclic sulfones with aminobenzyl substitution useful as BACE inhibitors” (Novartis AG, priority 2008, dated 2012)
Where a name gives a salt, the structure may show the parent alone.

Target: T1, Human BACE (Homo sapiens, UniProt P56817)
T1 construct: Recombinant BACE (extracellular domain, expressed in baculovirus and purified using standard methods); made in house
Test: Test 1: Inhibition of Human BACE
Format: biochemical
Settings: Test 1; recombinant BACE extracellular domain, acetate buffer pH 4.5, 1 hour incubation at room temperature, fluorescence-quenched APP-derived peptide substrate; read-out: Bace IC50
Procedure: Test 1: Inhibition of Human BACE
Recombinant BACE (extracellular domain, expressed in baculovirus and purified using standard methods) at 0.1 to 10 nM concentrations is incubated with the test compound at various concentrations for 1 hour at room temperature in 10 to 100 mM acetate buffer, pH 4.5, containing 0.1% CHAPS. […] IC50 values are calculated from percentage of inhibition of BACE-activity as a function of the test compound concentration.

T1 sequence (P56817 46-457 limits assumed): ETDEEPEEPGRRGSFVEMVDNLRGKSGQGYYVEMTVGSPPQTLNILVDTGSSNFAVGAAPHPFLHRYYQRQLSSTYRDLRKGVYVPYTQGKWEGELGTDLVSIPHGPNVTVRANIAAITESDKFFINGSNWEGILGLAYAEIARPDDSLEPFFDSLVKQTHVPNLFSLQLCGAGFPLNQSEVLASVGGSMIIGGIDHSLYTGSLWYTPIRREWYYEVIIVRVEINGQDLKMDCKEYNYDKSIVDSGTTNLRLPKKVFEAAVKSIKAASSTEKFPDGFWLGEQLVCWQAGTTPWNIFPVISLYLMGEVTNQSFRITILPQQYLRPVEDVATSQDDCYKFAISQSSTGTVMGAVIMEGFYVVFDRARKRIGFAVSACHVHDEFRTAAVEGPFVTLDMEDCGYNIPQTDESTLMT

| SMILES | IC50 |
| --- | --- |
| CCNC(=O)c1cc(CC2CS(=O)(=O)CC(NCc3cccc(C(C)(C)C)c3)C2O)ccc1N (stereo not shown) [Example 19] | 26 nM |
| C[C@H](Oc1cc(C[C@@H]2C[S@@+]([O-])C[C@H](NCc3ccc4c(c3)C(C)(C)OC4)[C@H]2O)cc(F)c1N)C(F)(F)F [Example 52, (1R,3S,4S,5R)-3-[4-Amino-3-fluoro-5-((S)-2,2,2-trifluoro-1-methyl-ethoxy)-benzyl]-5-[(3,3-dimethyl-1,3-dihydro-isobenzofuran-5-ylmethyl)-amino]-1-oxo-hexa-hydro-1lambda*4*-thiopyran-4-ol] | 117 nM |
| CN(C)CC(=O)Nc1c(F)cc(C[C@@H]2CS(=O)(=O)C[C@H](NCc3cccc(C(C)(C)C)c3)[C@H]2O)cc1OCC(F)(F)F [Example 26, N-[4-[(3S,4S,5R)-5-(3-tert-Butyl-benzylamino)-4-hydroxy-1,1-dioxo-hexahydro-1lambda*6*-thiopyran-3-ylmethyl]-2-fluoro-6-(2,2,2-trifluoro-ethoxy)-phenyl]-2-dimethylamino-acetamide dihydrochloride] | 7 nM |
| COCC(Oc1cc(CC2C[S+]([O-])CC(NCc3cccc(OC(F)F)c3)C2O)cc(F)c1N)C(F)(F)F (stereo not shown) [Example 62] | 334 nM |
| COC[C@@H](Oc1cc(C[C@@H]2C[S+]([O-])C[C@H](NCc3cccc(C4(C)CC4)c3)[C@H]2O)cc(F)c1N)C(F)(F)F (stereo partly drawn) [Example 43, (3S,4S,5R)-3-[4-Amino-3-fluoro-5-((R)-2,2,2-trifluoro-1-methoxymethyl-ethoxy)-benzyl]-5-[3-(1-methyl-cyclopropyl)-benzylamino]-1-oxo-hexahydro-1lambda*4*-thiopyran-4-ol hydrochloride] | 10 nM |
| COCC(Oc1cc(CC2C[S+]([O-])CC(NCc3cccc(OC)c3)C2O)cc(F)c1N)C(F)(F)F (stereo not shown) [Example 59] | 384 nM |
| CCNCC(=O)Nc1c(F)cc(C[C@@H]2CS(=O)(=O)C[C@H](NCc3cccc(C(C)(C)C)c3)[C@H]2O)cc1OCC(F)(F)F [Example 27] | 3 nM |
